Test results published in patent US8673908B2, “Kynurenine production inhibitor” (Kyowa Hakko Kirin Co., Ltd., priority 2008, dated 2014).

Tested on: kynurenine production in IFN-γ-treated KATO-III cells
Experiment: Inhibitory activity on kynurenine production (Test Example 1)
Format: cell-based
Conditions: Homo sapiens, IFN-γ treatment, culture for 96 hours, read-out: IC50 value, inhibition of kynurenine production
Method in brief: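 KATO-III human gastric cancer cells (2,000/well, RPMI 1640 + 10% FBS) were cultured with compound and IFN-γ (31.25 ng/mL in the cell suspension), DMSO ≤0.1%, for 96 h at 37 °C, 5% CO2. Kynurenine was read at A480 after TCA at 65 °C and p-dimethylaminobenzaldehyde. Inhibition used IFN-γ-treated and untreated DMSO wells as references.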

| IC50 [nM] | Structure (SMILES) |
| --- | --- |
| < 1000 | O=S(=O)(Nc1nc2ccccc2nc1OC(c1ccco1)C(F)(F)F)c1ccccc1Cl (centres unmarked) [Compound 109, 2-chloro-N-{3-[2,2,2-trifluoro-1-(furan-2-yl)ethoxy]-quinoxalin-2-yl}benzenesulfonamide] |
| < 1000 | O=S(=O)(Nc1nc2ccccc2nc1OC(c1cnc(Cl)s1)C(F)(F)F)c1ccccc1Cl (centres unmarked) [Compound 110, 2-chloro-N-{3-[2,2,2-trifluoro-1-(2-chlorothiazol-5-yl)-ethoxy]quinoxalin-2-yl}benzenesulfonamide] |
| < 1000 | O=S(=O)(Nc1nc2ccccc2nc1OC(c1cncn1CC1CC1)C(F)(F)F)c1ccccc1Cl (centres unmarked) [Compound 111, 2-chloro-N-{3-[2,2,2-trifluoro-1-(1-cyclopropylmethyl-1H-imidazol-5-yl)ethoxy]quinoxalin-2-yl}benzenesulfonamide] |
| < 1000 | O=S(=O)(Nc1nc2ccccc2nc1OC(c1cn(CC2CC2)cn1)C(F)(F)F)c1ccccc1Cl (centres unmarked) [Compound 112, 2-chloro-N-{3-[2,2,2-trifluoro-1-(1-cyclopropylmethyl-1H-imidazol-4-yl)ethoxy]quinoxalin-2-yl}benzenesulfonamide] |
| < 1000 | O=S(=O)(Nc1nc2ccccc2nc1OC(c1cncs1)C(F)(F)F)c1ccccc1Cl (centres unmarked) [Compound 113, 2-chloro-N-{3-[2,2,2-trifluoro-1-(thiazol-5-yl)ethoxy]-quinoxalin-2-yl}benzenesulfonamide] |
| < 1000 | Cc1ncc(C(Oc2nc3ccccc3nc2NS(=O)(=O)c2ccccc2Cl)C(F)(F)F)n1C (centres unmarked) [Compound 115, 2-chloro-N-{3-[2,2,2-trifluoro-1-(1,2-dimethyl-1H-imidazol-5-yl)ethoxy]quinoxalin-2-yl}benzenesulfonamide] |
| < 1000 | O=S(=O)(Nc1nc2ccccc2nc1OC(C1CCOCC1)C(F)(F)F)c1ccccc1Cl (centres unmarked) [Compound 116, 2-chloro-N-{3-[2,2,2-trifluoro-1-(tetrahydro-2H-pyran-4-yl)ethoxy]quinoxalin-2-yl}benzenesulfonamide] |
| < 1000 | O=S(=O)(Nc1nc2ccccc2nc1OC(C1CC1)C(F)(F)F)c1ccccc1Cl (centres unmarked) [Compound 117, 2-chloro-N-[3-(1-cyclopropyl-2,2,2-trifluoroethoxy)-quinoxalin-2-yl]benzenesulfonamide] |
| < 1000 | O=S(=O)(Nc1nc2ccccc2nc1OC(C1CCCCC1)C(F)(F)F)c1ccccc1Cl (centres unmarked) [Compound 118, 2-chloro-N-[3-(1-cyclohexyl-2,2,2-trifluoroethoxy)-quinoxalin-2-yl]benzenesulfonamide] |
| < 1000 | Cc1noc(C)c1S(=O)(=O)Nc1nc2ccccc2nc1OC(C1CCOCC1)C(F)(F)F (centres unmarked) [Compound 119, 3,5-dimethyl-N-{3-[2,2,2-trifluoro-1-(tetrahydro-2H-pyran-4-yl)ethoxy]quinoxalin-2-yl}isoxazole-4-sulfonamide] |
| < 1000 | Cc1nn(C)c(Cl)c1S(=O)(=O)Nc1nc2ccccc2nc1OC(C1CCOCC1)C(F)(F)F (centres unmarked) [Compound 120, 5-chloro-1,3-dimethyl-N-{3-[2,2,2-trifluoro-1-(tetrahydro-2H-pyran-4-yl)ethoxy]quinoxalin-2-yl}-1H-pyrazole-4-sulfonamide] |
| < 1000 | CC1(C(Oc2nc3ccccc3nc2NS(=O)(=O)c2ccccc2Cl)C(F)(F)F)CCOCC1 (centres unmarked) [Compound 121, 2-chloro-N-{3-[2,2,2-trifluoro-1-(4-methyltetrahydro-2H-pyran-4-yl]ethoxy}quinoxalin-2-yl)benzenesulfonamide] |
| < 1000 | O=S(=O)(Nc1nc2ccccc2nc1OC(c1cnc(Br)s1)C(F)(F)F)c1ccccc1Cl (centres unmarked) [Compound 126, 2-chloro-N-{3-[2,2,2-trifluoro-1-(2-bromothiazol-5-yl)-ethoxy]quinoxalin-2-yl}benzenesulfonamide] |
| < 1000 | Cn1c(C(Oc2nc3ccccc3nc2NS(=O)(=O)c2ccccc2Cl)C(F)(F)F)cc2ccccc21 (centres unmarked) [Compound 127, 2-chloro-N-{3-[2,2,2-trifluoro-1-(1-methyl-1H-indol-2-yl)-ethoxy]quinoxalin-2-yl}benzenesulfonamide] |
| < 1000 | Cc1noc(C)c1S(=O)(=O)Nc1nc2ccccc2nc1OC(c1cc2ccccc2n1C)C(F)(F)F (centres unmarked) [Compound 128, 3,5-dimethyl-N-{3-[2,2,2-trifluoro-1-(1-methyl-1H-indol-2-yl)ethoxy]quinoxalin-2-yl}isoxazole-4-sulfonamide] |
| < 1000 | Cc1nn(C)c(Cl)c1S(=O)(=O)Nc1nc2ccccc2nc1OC(c1cc2ccccc2n1C)C(F)(F)F (centres unmarked) [Compound 129, 5-chloro-1,3-dimethyl-N-{3-[2,2,2-trifluoro-1-(1-methyl-1H-indol-2-yl)ethoxy]quinoxalin-2-yl}-1H-pyrazole-4-sulfonamide] |
| < 1000 | Cc1nn(C)c(Cl)c1S(=O)(=O)Nc1nc2ccccc2nc1OC(C1CCSCC1)C(F)(F)F (centres unmarked) [Compound 130, 5-chloro-1,3-dimethyl-N-{3-[2,2,2-trifluoro-1-(tetrahydro-2H-thiopyran-4-yl)ethoxy]quinoxalin-2-yl}-1H-pyrazole-4-sulfonamide] |
| < 1000 | Cc1noc(C)c1S(=O)(=O)Nc1nc2ccccc2nc1OC(C1CCSCC1)C(F)(F)F (centres unmarked) [Compound 131, 3,5-dimethyl-N-{3-[2,2,2-trifluoro-1-(tetrahydro-2H-thiopyran-4-yl)ethoxy]quinoxalin-2-yl}isoxazole-4-sulfonamide] |

| IC50 [nM] | Structure (SMILES) |
| --- | --- |
| < 1000 | O=S(=O)(Nc1nc2ccccc2nc1OC(c1cnc(-c2ccccc2)s1)C(F)(F)F)c1ccccc1Cl (centres unmarked) [Compound 134, 2-chloro-N-{3-[2,2,2-trifluoro-1-(2-phenylthiazol-5-yl)-ethoxy]quinoxalin-2-yl}benzenesulfonamide] |
| < 1000 | CCCS(=O)(=O)Nc1nc2ccccc2nc1OC(c1cc2ccccc2n1C)C(F)(F)F (centres unmarked) [Compound 135, N-{3-[2,2,2-trifluoro-1-(1-methyl-1H-indol-2-yl)ethoxy]-quinoxalin-2-yl}propane-1-sulfonamide] |
| < 1000 | O=S(=O)(Nc1nc2ccccc2nc1OC(C1CCOC1)C(F)(F)F)c1ccccc1Cl (centres unmarked) [Compound 136, 2-chloro-N-{3-[2,2,2-trifluoro-1-(tetrahydrofuran-3-yl)-ethoxy]quinoxalin-2-yl}benzenesulfonamide] |
| < 1000 | O=S(=O)(Nc1nc2ccccc2nc1OC(c1cccnc1)C(F)(F)F)c1ccccc1 (centres unmarked) [Compound 137, N-{3-[2,2,2-trifluoro-1-(pyridin-3-yl)ethoxy]quinoxalin-2-yl}benzenesulfonamide] |
| < 1000 | O=S(=O)(Nc1nc2ccccc2nc1OC(c1cccnc1)C(F)(F)F)c1ccccc1Cl (centres unmarked) [Compound 138, 2-Chloro-N-{3-[2,2,2-trifluoro-1-(pyridin-3-yl)ethoxy]-quinoxalin-2-yl}benzenesulfonamide] |
| < 1000 | O=S(=O)(Nc1nc2ccccc2nc1OC(c1cccnc1)C(F)(F)F)c1cccnc1 (centres unmarked) [Compound 139, N-{3-[2,2,2-trifluoro-1-(pyridin-3-yl)ethoxy]quinoxalin-2-yl}pyridine-3-sulfonamide] |
| < 1000 | O=S(=O)(Nc1nc2ccccc2nc1OC(c1cccnc1)C(F)(F)F)c1cccs1 (centres unmarked) [Compound 140, N-{3-[2,2,2-trifluoro-1-(pyridin-3-yl)ethoxy]quinoxalin-2-yl}thiophene-2-sulfonamide] |
| < 1000 | Cc1nn(C)c(Cl)c1S(=O)(=O)Nc1nc2ccccc2nc1OC(c1cccnc1)C(F)(F)F (centres unmarked) [Compound 141, 5-chloro-1,3-dimethyl-N-{3-[2,2,2-trifluoro-1-(pyridin-3-yl)ethoxy]quinoxalin-2-yl}-1H-pyrazole-4-sulfonamide] |
| < 1000 | Cc1cc(S(=O)(=O)Nc2nc3ccccc3nc2OC(c2cccnc2)C(F)(F)F)c(C(F)(F)F)o1 (centres unmarked) [Compound 143, 5-methyl-N-{3-[2,2,2-trifluoro-1-(pyridin-3-yl)ethoxy]-quinoxalin-2-yl}-2-(trifluoromethyl)furan-3-sulfonamide] |
| < 1000 | O=S(=O)(Nc1nc2ccccc2nc1OC(c1cccnc1)C(F)(F)F)c1ccccc1F (centres unmarked) [Compound 144, 2-fluoro-N-{3-[2,2,2-trifluoro-1-(pyridin-3-yl)ethoxy]-quinoxalin-2-yl}benzenesulfonamide] |
| < 1000 | O=S(=O)(Nc1nc2ccccc2nc1OC(c1cccnc1)C(F)(F)F)c1ccc(Cl)s1 (centres unmarked) [Compound 146, 5-chloro-N-{3-[2,2,2-trifluoro-1-(pyridin-3-yl)ethoxy]-quinoxalin-2-yl}thiophene-2-sulfonamide] |
| < 1000 | O=S(=O)(Cc1ccccc1)Nc1nc2ccccc2nc1OC(c1cccnc1)C(F)(F)F (centres unmarked) [Compound 147, 1-phenyl-N-{3-[2,2,2-trifluoro-1-(pyridin-3-yl)ethoxy]-quinoxalin-2-yl}methanesulfonamide] |
| 1000 to 10000 | CS(=O)(=O)Nc1nc2ccccc2nc1OC(c1cccnc1)C(F)(F)F (centres unmarked) [Compound 148, N-{3-[2,2,2-trifluoro-1-(pyridin-3-yl)ethoxy]quinoxalin-2-yl}methanesulfonamide] |
| < 1000 | O=S(=O)(Nc1nc2ccccc2nc1OC(c1cccnc1)C(F)(F)F)C1CC1 (centres unmarked) [Compound 150, N-{3-[2,2,2-trifluoro-1-(pyridin-3-yl)ethoxy]quinoxalin-2-yl}cyclopropanesulfonamide] |
| < 1000 | O=S(=O)(Nc1nc2ccccc2nc1OC(c1cccnc1)C(F)(F)F)c1ccccc1OC(F)(F)F (centres unmarked) [Compound 151, N-{3-[2,2,2-trifluoro-1-(pyridin-3-yl)ethoxy]quinoxalin-2-yl}-2-(trifluoromethoxy)benzenesulfonamide] |
| < 1000 | O=S(=O)(Nc1nc2ccccc2nc1OC(c1cccnc1)C(F)(F)F)c1cc(Cl)cc(Cl)c1 (centres unmarked) [Compound 152, 3,5-dichloro-N-{3-[2,2,2-trifluoro-1-(pyridin-3-yl)ethoxy]-quinoxalin-2-yl}benzenesulfonamide] |
| < 1000 | O=S(=O)(Nc1nc2ccccc2nc1OC(c1cccnc1)C(F)(F)F)c1cc(F)cc(F)c1 (centres unmarked) [Compound 153, 3,5-difluoro-N-{3-[2,2,2-trifluoro-1-(pyridin-3-yl)ethoxy]-quinoxalin-2-yl}benzenesulfonamide] |
